Assay results: PMC9841524, “Structure-Based Rational Design of Small α-Helical Peptides with Broad-Spectrum Activity against Multidrug-Resistant Pathogens” (Journal of Medicinal Chemistry, 2022)
Read-outs that look alike come from different tables or passages of the source. Where no end group is shown, it is not given here.

Tests used:
MRSA (ATCC BAA-1556) [1] = experiment: Bactericidal kinetic assay; format: cell-based, methicillin-resistant S. aureus; conditions: for killing of MRSA cells at 4 × MIC: after 4 h of incubation
Method: The time course of bacterial killing was studied by the exposure of overnight grown cultures of MRSA (ATCC BAA-1556) and E. coli (ATCC BAA-2452) to 8a and 8b at the MIC and 4× the MIC in Muller Hinton media. Bacterial cells (2 × 10^6 CFU/mL) were treated with peptides and standard antibiotics and incubated at 37 °C. Aliquots were withdrawn at a 30 min time interval for 4 h and plated on the agar plate to determine the number of viable bacterial colonies. Data were obtained from two independent experiments performed in triplicate.

MRSA (ATCC BAA-1556) [2] = experiment: Flow cytometric analysis of PI-stained cells; format: cell-based, methicillin-resistant S. aureus; conditions: flow cytometry; for PI fluorescence of MRSA cells at MIC: 1 h treatment, 10^7 CFU/mL
Method: The flow cytometric analysis was performed by using MRSA (ATCC BAA-1556) and E. coli (ATCC BAA-2452) cultures grown to the mid log phase in Mueller Hinton broth (HIMEDIA). Before treatment, bacterial cells were washed thrice with buffer (10 mM Tris, pH 7.4) and resuspended in the same buffer to obtain 10^7 CFU/mL bacterial suspensions. Test peptides (8a and 8b) and the standard antibiotics (daptomycin and polymyxin B) at MIC and 4 × MIC were incubated with bacterial suspension for 1 h. Following the treatment with test peptides, the cells were pelleted by centrifugation at 3000g for 15 min in a microcentrifuge. The supernatant was decanted, and the cells were washed with PBS several times and then incubated with PI ([…]) in the dark for 15 min at 37 °C. FACS analysis of the stained bacterial cells was performed using a FACscan flow cytometer (BD Accuri C6, BD Biosciences, California, USA), and data were analyzed by using Cell Quest software.

[3] = tested on: Bacillus cereus (ATCC 13061)
Summary of the method: (§1)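 In this CLSI-recommended assay, peptides were serially diluted twofold and combined with bacteria at 10^6 CFU/mL in cation-adjusted Mueller Hinton Broth.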

E. faecalis (ATCC 29212) = tested on: E. faecalis (ATCC 29212)
Summary of the method: as §1

[4] = tested on: Bacillus subtilis (ATCC 6633)
Summary of the method: as §1

[5] = tested on: P. aeruginosa (ATCC 27883); experiment: MIC, standard microtiter dilution (CLSI); format: cell-based, Pseudomonas aeruginosa; conditions: broth microdilution (CLSI), CAMHB, 37 °C, 24 h
Summary of the method: as §1

[6] = tested on: P. aeruginosa (ATCC BAA-1744); conditions: Gram-negative, resistant strain (marked a; imipenem resistant in Table S3); CLSI microdilution, CAMHB, 37 °C, 24 h; highest MIC of three independent experiments in triplicate
Summary of the method: as §1

[7] = tested on: P. aeruginosa (ATCC 10145)
Summary of the method: as §1

[8] = tested on: A. baumannii (ATCC BAA1605); conditions: Gram-negative, footnote e ciprofloxacin (MDR in Table S3); CLSI microdilution, CAMHB, 37 °C, 24 h; highest MIC of three independent experiments in triplicate
Summary of the method: as §1

E. coli (ATCC 25922) = conditions: for MIC, E. coli (ATCC 25922): broth microdilution (CLSI), CAMHB, 37 °C, 24 h
Summary of the method: as §1

[9] = tested on: Klebsiella pneumonia (ATCC 13883)
Summary of the method: as §1

[10] = tested on: K. pneumonia (ATCC BAA-2470); conditions: Gram-negative, carbapenem-resistant; CLSI microdilution, CAMHB, 37 °C, 24 h; highest MIC of three independent experiments in triplicate
Summary of the method: as §1

E. coli (ATCC BAA-2452) = conditions: Gram-negative, NDM-1; CLSI microdilution, CAMHB, 37 °C, 24 h; highest MIC of three independent experiments in triplicate
Summary of the method: as §1

[11] = Gram-positive, CLSI microdilution, CAMHB, 37 °C, 24 h, highest MIC of three independent experiments in triplicate
[12] = 10^6 CFU/mL, highest MIC of three independent experiments in triplicate
[13] = media with 1 mM MgCl2, three independent experiments in triplicate
[14] = media with 2 mM CaCl2, three independent experiments in triplicate
[15] = Gram-negative, CLSI microdilution, CAMHB, 37 °C, 24 h, highest MIC of three independent experiments in triplicate
[16] = MH media without salt ions or serum, three independent experiments in triplicate
[17] = media with 4.5 mM KCl, three independent experiments in triplicate
[18] = media with 6 mM NH4Cl, three independent experiments in triplicate

| Molecule | MIC, Bacillus cereus (ATCC 13061) [3, 11] | MIC, E. faecalis (ATCC 29212) (E. faecalis (ATCC 29212); [11]) | MIC, P. aeruginosa (ATCC 27883) [5, 12] | MIC, P. aeruginosa (ATCC 27883) ([5]; value in parentheses (μM)) | MIC, P. aeruginosa (ATCC BAA-1744) [6] | MIC, Bacillus cereus (ATCC 13061) ([3]; ATCC 13061, 24 h) | MIC, P. aeruginosa (ATCC 10145) ([7]; ATCC 10145, 24 h) | MIC, A. baumannii (ATCC BAA1605) [8] | MIC, E. coli (ATCC 25922), Control (E. coli (ATCC 25922); ATCC 25922, 24 h) | MIC, E. coli (ATCC 25922), FBS (25%) (E. coli (ATCC 25922); ATCC 25922, 24 h) | MIC, E. coli (ATCC 25922), KCl (E. coli (ATCC 25922); ATCC 25922, 24 h) | MIC, E. coli (ATCC 25922), NH4Cl (E. coli (ATCC 25922); ATCC 25922, 24 h) | MIC, E. coli (ATCC 25922), NaCl (E. coli (ATCC 25922); ATCC 25922, 24 h) | MIC, E. coli (ATCC 25922) (E. coli (ATCC 25922); [12]) | MIC, E. coli (ATCC 25922), MgCl2 (E. coli (ATCC 25922); [13]) | MIC, E. coli (ATCC 25922), CaCl2 (E. coli (ATCC 25922); [14]) | MIC, E. coli (ATCC 25922) (E. coli (ATCC 25922); value in parentheses (μM)) | MIC, K. pneumonia (ATCC BAA-2470) [10] | MIC, Bacillus subtilis (ATCC 6633) ([4]; ATCC 6633, 24 h) | MIC, E. coli (ATCC BAA-2452) (E. coli (ATCC BAA-2452)) | further results |
| --- | --- | --- | --- | --- | --- | --- | --- | --- | --- | --- | --- | --- | --- | --- | --- | --- | --- | --- | --- | --- | --- |
| CCCCCCCCCC(=O)N[C@@H](Cc1c[nH]c2ccccc12)C(=O)N[C@H](CC(N)=O)C(=O)N[C@@H](CC(=O)O)C(=O)N[C@@H]1C(=O)NCC(=O)N[C@@H](CCCN)C(=O)N[C@@H](CC(=O)O)C(=O)N[C@H](C)C(=O)N[C@@H](CC(=O)O)C(=O)NCC(=O)N[C@H](CO)C(=O)N[C@@H]([C@H](C)CC(=O)O)C(=O)N[C@@H](CC(=O)c2ccccc2N)C(=O)O[C@@H]1C [daptomycin, reference compound] | 1.5 µg/mL | 6.2 µg/mL | – | – | – | – | – | – | – | – | – | – | – | – | – | – | – | – | – | – | time to complete killing of MRSA at 4 × MIC (MRSA (ATCC BAA-1556) [1]; 4 × MIC): 3 h; PI-stained population of MRSA cells (MRSA (ATCC BAA-1556) [2]; MIC and 4 × MIC, 1 h): did not significantly increase; MIC, Bacillus subtilis (ATCC 6633) [4, 11]: 0.7 µg/mL |
| KWIKKWIKWWKK-NH2 [7b] | – | 12.5 µg/mL | 6.2 µg/mL | 3.53 µM | 12.5 µg/mL | 6.2 µg/mL | 6.2 µg/mL | 12.5 µg/mL | 6.2 µg/mL | 50 µg/mL | 25 µg/mL | 25 µg/mL | 25 µg/mL | 6.2 µg/mL | 12.5 µg/mL | 12.5 µg/mL | 3.53 µM | 25 µg/mL | 3.1 µg/mL | 6.2 µg/mL | MIC, Klebsiella pneumonia (ATCC 13883) ([9]; ATCC 13883, 24 h): 25 µg/mL |
| RWIRRWIRWWRR-NH2 [7a] | 12.5 µg/mL | 12.5 µg/mL | 6.2 µg/mL | 3.22 µM | 12.5 µg/mL | – | – | 12.5 µg/mL | – | 50 µg/mL | – | – | 25 µg/mL | 6.2 µg/mL | 12.5 µg/mL | 12.5 µg/mL | 3.22 µM | 12.5 µg/mL | 6.2 µg/mL | 12.5 µg/mL | MIC, P. aeruginosa (ATCC 10145) [7, 15]: 12.5 µg/mL; MIC, E. coli (ATCC 25922), Control (E. coli (ATCC 25922); [16]): 6.2 µg/mL; MIC, E. coli (ATCC 25922), KCl (E. coli (ATCC 25922); [17]): 12.5 µg/mL; MIC, E. coli (ATCC 25922), NH4Cl (E. coli (ATCC 25922); [18]): 12.5 µg/mL; MIC, Klebsiella pneumonia (ATCC 13883) ([9]; ATCC 13883, 24 h): 25 µg/mL |
| KWLKKWLKWWKK-NH2 [8b] | – | – | 6.2 µg/mL | 3.53 µM | 6.2 µg/mL | 3.1 µg/mL | 6.2 µg/mL | 3.1 µg/mL | 6.2 µg/mL | 25 µg/mL | – | – | 25 µg/mL | 6.2 µg/mL | – | – | 3.53 µM | 12.5 µg/mL | 3.1 µg/mL | 6.2 µg/mL | killing of MRSA cells at 4 × MIC (MRSA (ATCC BAA-1556) [1]): completely eliminated; PI fluorescence of MRSA cells at MIC (MRSA (ATCC BAA-1556) [2]): 42.1%; MIC, E. coli (ATCC 25922), CaCl2 (E. coli (ATCC 25922); ATCC 25922, 24 h): 25 µg/mL; MIC, E. coli (ATCC 25922), MgCl2 (E. coli (ATCC 25922); ATCC 25922, 24 h): 25 µg/mL; MIC, E. coli (ATCC 25922), KCl (E. coli (ATCC 25922); [17]): 12.5 µg/mL; MIC, E. coli (ATCC 25922), NH4Cl (E. coli (ATCC 25922); [18]): 12.5 µg/mL; MIC, E. faecalis (ATCC 29212) (E. faecalis (ATCC 29212); ATCC 29212, 24 h): 6.2 µg/mL; MIC, Klebsiella pneumonia (ATCC 13883) [9, 15]: 12.5 µg/mL |
| RWLRRWLRWWRR-NH2 [8a] | – | 12.5 µg/mL | 12.5 µg/mL | 6.49 µM | 12.5 µg/mL | 6.2 µg/mL | 6.2 µg/mL | 6.2 µg/mL | – | > 50 µg/mL | 25 µg/mL | 25 µg/mL | > 50 µg/mL | 12.5 µg/mL | – | – | 6.49 µM | 12.5 µg/mL | 3.1 µg/mL | 12.5 µg/mL | killing of MRSA cells at 4 × MIC (MRSA (ATCC BAA-1556) [1]): completely eliminated; PI fluorescence of MRSA cells at MIC (MRSA (ATCC BAA-1556) [2]): 34.2%; MIC, E. coli (ATCC 25922), CaCl2 (E. coli (ATCC 25922); ATCC 25922, 24 h): 25 µg/mL; MIC, E. coli (ATCC 25922), MgCl2 (E. coli (ATCC 25922); ATCC 25922, 24 h): 50 µg/mL; MIC, E. coli (ATCC 25922), Control (E. coli (ATCC 25922); [16]): 12.5 µg/mL; MIC, Klebsiella pneumonia (ATCC 13883) [9, 15]: 12.5 µg/mL |
